Patent US7629315B2, “Compositions for blocking the inhibitory effect of human CRP on human leptin” (University of Pittsburgh of the Commonwealth System of …, priority 2005, dated 2009)

T1: long-form human leptin receptor, OB-Rb (Homo sapiens, UniProt P48357)
T1 construct: expressed in transfected cells
T1 sequence (P48357 22-1165): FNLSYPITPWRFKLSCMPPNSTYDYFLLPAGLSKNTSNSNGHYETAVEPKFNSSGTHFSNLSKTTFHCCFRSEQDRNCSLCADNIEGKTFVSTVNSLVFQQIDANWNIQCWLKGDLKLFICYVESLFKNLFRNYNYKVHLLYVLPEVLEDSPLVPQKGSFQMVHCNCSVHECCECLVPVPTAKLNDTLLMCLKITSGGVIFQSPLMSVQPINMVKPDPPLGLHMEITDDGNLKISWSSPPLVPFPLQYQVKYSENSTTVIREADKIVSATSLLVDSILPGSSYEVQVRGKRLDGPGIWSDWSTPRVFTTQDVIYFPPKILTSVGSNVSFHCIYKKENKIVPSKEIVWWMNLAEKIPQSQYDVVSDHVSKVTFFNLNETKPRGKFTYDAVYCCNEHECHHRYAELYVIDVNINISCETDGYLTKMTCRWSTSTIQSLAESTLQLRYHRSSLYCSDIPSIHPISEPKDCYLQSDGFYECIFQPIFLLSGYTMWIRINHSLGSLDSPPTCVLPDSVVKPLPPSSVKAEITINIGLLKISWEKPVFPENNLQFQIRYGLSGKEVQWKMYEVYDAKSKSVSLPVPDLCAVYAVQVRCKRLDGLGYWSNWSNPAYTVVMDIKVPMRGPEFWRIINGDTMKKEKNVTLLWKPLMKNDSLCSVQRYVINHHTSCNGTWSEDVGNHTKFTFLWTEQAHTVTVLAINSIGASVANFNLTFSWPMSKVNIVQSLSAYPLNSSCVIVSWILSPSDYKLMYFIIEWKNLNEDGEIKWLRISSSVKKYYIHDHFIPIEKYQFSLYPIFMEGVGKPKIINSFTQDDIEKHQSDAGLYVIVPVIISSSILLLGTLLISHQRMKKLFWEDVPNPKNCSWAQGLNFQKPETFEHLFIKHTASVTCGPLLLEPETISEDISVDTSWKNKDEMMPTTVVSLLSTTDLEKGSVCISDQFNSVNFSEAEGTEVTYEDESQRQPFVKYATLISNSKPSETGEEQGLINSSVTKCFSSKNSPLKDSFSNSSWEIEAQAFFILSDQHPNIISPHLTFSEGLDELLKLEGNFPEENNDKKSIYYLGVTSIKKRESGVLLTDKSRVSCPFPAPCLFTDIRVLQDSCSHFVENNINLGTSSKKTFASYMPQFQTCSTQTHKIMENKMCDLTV

B1: mouse SAP: mouse pentraxin-like serum amyloid P component structurally similar to CRP (protein)
chain: QTDLKRKVFVFPRESETDHVKLIPHLEKPLQNFTLCFRTYSDLSRSQSLFSYSVKGRDNELLIYKEKVGEYSLYIGQSKVTVRGMEEYLSPVHLCTTWESSSGIVEFWVNGKPWVKKSLQREYTVKAPPSIVLGQEQDNYGGGFQRSQSFVGEFSDLYMWDYVLTPQDILFVYRDSPVNPNILNWQALNYEINGYVVIRPRVWD

What was measured:
[1] = system: lean and healthy humans; test: Injection of leptin in lean and healthy humans, plasma CRP; assay type: in vivo, human
[2] = system: human primary hepatocytes; test: Leptin-stimulated CRP expression in human primary hepatocytes in vitro; assay type: cell-based
[3] = system: ob/ob mice; test: Infusion of human CRP and/or human leptin by osmotic pumps into ob/ob mice; assay type: in vivo, mouse
Method: 3(a). In vivo assessment of CRP functions: The micro-osmotic pumps (#1007D, DURECT, Cupertino, Calif.) were subcutaneously imbedded in the ob/ob or wild-type mice according to the instructions of the manufacturer. The osmotic pumps were pre-filled with saline, CRP, leptin or leptin plus CRP. Food-intake (24-h), body weight, and body temperature were monitored daily post-surgery. Blood glucose concentrations were measured from the tail-vein blood samples right before and at the end of infusion with a Precision Plus glucose meter (Medisense, Abbot Park, Ill.).
3(b) Assessment of serum leptin insulin, and CRP: Human- and mouse-leptin concentrations were measured with the ELISA kit from CHEMICON (Temecular, Calif.) and R&D Systems (Minneapolis, Minn.), respectively, according to the instructions of the manufacturer. Serum mouse insulin concentrations were determined with an ELISA assay (LINCO Research, St. Charles, Mo.). Human CRP concentrations were also evaluated with an ELISA kit (Alpha Diagnostics International, San Antonio, Tex.).
3(c) Measurement of serum- and tissue-triglycerides: Serum- and tissue-triglycerides were determined with the protocols described in J. N. Huan et al., 2003, J. Biol. Chem. 278, 45638. […]

[4] = biological target: T1, long-form human leptin receptor, OB-Rb; test: 125I-leptin binding to HEK293 cells stably transfected with OB-Rb; details: HEK293 cell line stably transfected with OB-Rb; read-out: Kd for leptin and its receptors
Method: 4. Measurement of IC50 for human CRP against human leptin: Human leptin was iodinated with Na^125I using the lodogen method. Briefly, 15 μg of human leptin in 100 mM Phosphate buffer pH 7.5 were incubated with 1 mCi of carrier-free Na^125I (2200 Ci/mmol) in a glass tube containing 50 μg Iodogen. After 10 minute incubation at room temperature, the reaction was stopped with 100 μl 0.1% trifluoroacetic acid (TFA). The reaction mixture was immediately purified by reverse-phase HPLC. The separation employed a 5 minute isocratic step at 20% eluant B in A, followed by two consecutive 30 minute linear gradients from 20 to 50%, then from 50 to 60% eluant B in A (where eluant A is water containing 0.1% TFA and eluant B is acetonitrile containing 0.1% TFA) at a flow rate of 1.5 ml/min. The ^125I-labeled leptin (˜2 ng/ml) was pre-incubated with various concentrations of human CRP in 1 ml of μ-MEM for 30 minute before added to the OBR-expressing HEK293 cells. The incubation would last for 3 hours at 4° C. before the media was aspirated and the cells were dissolved in 0.1N NaOH for scintillation counting.
To examine if human CRP interferes with the binding of human leptin to its receptors, we used a HEK293 cell line stably transfected with the long-form human leptin receptor, OB-Rb. The characterization of this cell line has been reported in earlier studies. M. Friedman-Einat et al., 2003, Regul. Pept. […]

[5] = system: mice; test: Continuous infusion of leptin in mice, plasma SAP; assay type: in vivo, mouse; details: elevation of serum leptin through continuous infusion in mice
[6] = system: leptin; test: Immunoprecipitation of mouse SAP with leptin; assay type: binding
[7] = human leptin alone, 6-day continuous infusion

| Kd [4] [nM] | binding of leptin (immunoprecipitation) [6] | Molecule | plasma CRP concentrations [1] | expression of CRP [2] | body weight [3, 7] | food-intake [3, 7] | blood glucose ([3]; leptin alone) | hepatic triglyceride ([3]; leptin alone) | plasma insulin ([3]; leptin alone) | serum triglyceride ([3]; leptin alone) | plasma concentrations of SAP [5] |
| --- | --- | --- | --- | --- | --- | --- | --- | --- | --- | --- | --- |
| 1 | – | human leptin: recombinant human leptin, adipocyte hormone (SEQ ID NO:4) | leads to elevation of plasma CRP concentrations | stimulates expression of CRP | produced the expected reduction in food-intake and body weight | produced the expected reduction in food-intake and body weight | lowering | lowering | lowering | lowering | increased plasma concentrations of SAP in mice |
| – | leptin binds to mouse SAP | B1 | – | – | – | – | – | – | – | – | – |
